How the values were obtained:
[1] = molecular target: neuraminidase (Influenza A virus, UniProt P03468)
Excerpt: Compositions of the invention are screened for inhibitory activity against neuraminidase by any of the conventional techniques for evaluating enzyme activity.
Enzyme Inhibition: Using the methods of screening in vitro activity described above, the following activities were observed (+10-100 μm, ++1-10 μm, +++<1.0 μm):

[2] = literature reports; cited from earlier work
[3] = Water solubility of salt form; type: physicochemical; settings: HCl salt form (dissolved in 3N HCl and lyophilized)
Procedure: Amino ethyl ester 262: Triphenyl phosphine (342 mg, 1.30 mmol) was added in one portion to a solution of 261 ([…], 0.80 mmol) in THF (17 mL) and water (1.6 mL). The reaction was then heated at 50° C. for 10 h, cooled and concentrated in vacuo to give a pale white solid. Purification of the crude solid by flash chromatography on silica gel (50% methanol in ethyl acetate) gave 242 mg (96%) of the amino ethyl ester 262 as a pale solid. The amino ethyl ester is dissolved in 3N HCl and lyophilized to give the corresponding water soluble HCl salt form. ^1H NMR (D2O, 300 MHz): δ 6.84 (s, 1H); 4.36-4.30 (br m, 1H); 4.24 (q, 2H, J=7.2 Hz); 4.05 (dd, 1H, J=9.0, 11.7 Hz); 3.63-3.50 (m, 2H); 2.95 (dd, 1H, J=5.7, 17.1 Hz); 2.57-2.45 (m, 1H); 1.60-1.39 (m, 4H); 1.27 (t, 3H, J=7.2 Hz); 0.89-0.80 (m, 6H).

neuraminidase, sequence (P03468 whole entry): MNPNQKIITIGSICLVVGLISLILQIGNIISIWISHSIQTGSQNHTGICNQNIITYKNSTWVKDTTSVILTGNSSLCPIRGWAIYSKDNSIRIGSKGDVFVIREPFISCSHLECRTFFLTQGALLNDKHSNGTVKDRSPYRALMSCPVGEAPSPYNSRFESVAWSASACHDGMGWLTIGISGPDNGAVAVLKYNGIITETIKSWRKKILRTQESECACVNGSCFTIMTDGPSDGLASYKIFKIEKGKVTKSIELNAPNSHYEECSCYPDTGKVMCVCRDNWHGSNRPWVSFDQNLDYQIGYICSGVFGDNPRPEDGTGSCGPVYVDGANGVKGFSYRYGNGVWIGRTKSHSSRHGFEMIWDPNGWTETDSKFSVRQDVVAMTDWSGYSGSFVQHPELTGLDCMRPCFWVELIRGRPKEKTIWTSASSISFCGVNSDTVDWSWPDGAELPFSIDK

| Structure (SMILES) | IC50 [1] | other results |
| --- | --- | --- |
| CC(=O)N[C@@H]1[C@@H](N)CC(C(=O)O)=C[C@H]1OCC(O)CO (stereo partly shown) [compound 8] | 1000 to 10000 nM |  |
| CC(=O)N[C@H]1[C@H]([C@H](O)[C@H](O)CO)OC(C(=O)O)=C[C@@H]1N=C(N)N [GG167, 4-guanidino-2,4-dideoxy-2,3-dehydro-N-acetylneuraminic acid] |  | Toxicity [2]: nontoxic |
| CC(=O)NC1C(O)C=C(C(=O)O)CC1NC(=N)N (stereo not shown) [compound 94] | < 1000 nM |  |
| CCOC(=O)C1=CC(OC(CC)CC)C(NC(C)=O)C(N)C1 (stereo not shown) [compound 262] |  | Water solubility [3]: water soluble |
